Values quoted from earlier work, collected in the PKSmart pharmacokinetics tables (Seal et al. 2025).

Tests used:
[1] = Lombardo et al. 2013, J Clin Pharmacol 53:178, doi 10.1177/0091270012440282; settings: for Vd / clearance: in vivo, iv; for fraction unbound: plasma
[2] = Lombardo, Berellini, Obach 2018, Drug Metab Dispos 46:1466, doi 10.1124/dmd.118.082966; settings: human; for MRT / Vd / clearance / half-life: in vivo, iv; for fraction unbound: plasma

Structure (SMILES): CC[C@@]1(O)C(=O)OCc2c1cc1n(c2=O)Cc2cc3c(N)cccc3nc2-1
- Vd ([1]; rat): 5 L/kg
- clearance ([1]; rat): 150 mL/min/kg
- MRT [2]: 5.6 h
- Vd [2]: 2.2 L/kg
- clearance [2]: 6.5 mL/min/kg
- half-life [2]: 7 h
- fraction unbound [2]: 0.003

Structure (SMILES): C[C@]12C=CC(=O)C=C1CC[C@@H]1[C@@H]2[C@@H](O)C[C@@]2(C)[C@H]1CC[C@]2(O)C(=O)CO
- Vd ([1]; rat): 1.74 L/kg
- clearance ([1]; rat): 98.7 mL/min/kg
- fraction unbound ([1]; rat): 0.32
- fraction unbound [2]: 0.25

Structure (SMILES): COc1cccc2c1C(=O)c1c(O)c3c(c(O)c1C2=O)C[C@@](O)(C(=O)CO)C[C@@H]3O[C@H]1C[C@H](N)[C@@H](O)[C@H](C)O1
- Vd ([1]; dog): 71.9 L/kg
- fraction unbound ([1]; dog): 0.808
- Vd ([1]; rat): 0.17 L/kg
- clearance ([1]; rat): 25.9 mL/min/kg
- MRT [2]: 38 h
- Vd [2]: 45 L/kg
- clearance [2]: 20 mL/min/kg
- half-life [2]: 36 h

Structure (SMILES): Cc1ccsc1C(=CCCN1CCCC(C(=O)O)C1)c1sccc1C (stereo unspecified)
- Vd ([1]; rat): 2.05 L/kg
- clearance ([1]; rat): 89 mL/min/kg
- MRT [2]: 12 h
- Vd [2]: 1.1 L/kg
- clearance [2]: 1.6 mL/min/kg
- half-life [2]: 10 h

Structure (SMILES): O=P(O)(O)C(O)(Cn1ccnc1)P(=O)(O)O
- Vd ([1]; dog): 0.28 L/kg
- clearance ([1]; dog): 4.13 mL/min/kg
- MRT [2]: 4.5 h
- Vd [2]: 0.6 L/kg
- clearance [2]: 2.2 mL/min/kg
- half-life [2]: 11 h
- fraction unbound [2]: 0.78

Structure (SMILES): CNCC[C@@H](Oc1ccccc1C)c1ccccc1
- Vd ([1]; rat): 4.3 L/kg
- clearance ([1]; rat): 36 mL/min/kg
- fraction unbound ([1]; rat): 0.11
- MRT [2]: 1.5 h
- Vd [2]: 0.85 L/kg
- clearance [2]: 9.3 mL/min/kg
- half-life [2]: 5.2 h

Structure (SMILES): CC(=O)Oc1ccccc1C(=O)O
- Vd ([1]; rat): 0.4 L/kg
- clearance ([1]; rat): 87 mL/min/kg
- MRT [2]: 0.3 h
- Vd [2]: 0.22 L/kg
- clearance [2]: 12 mL/min/kg
- half-life [2]: 0.26 h
- fraction unbound [2]: 0.68

Structure (SMILES): O=[N+]([O-])O[C@H]1CO[C@H]2[C@@H]1OC[C@H]2O[N+](=O)[O-]
- Vd ([1]; dog): 3 L/kg
- clearance ([1]; dog): 180 mL/min/kg
- Vd ([1]; monkey): 1.7 L/kg
- clearance ([1]; monkey): 58.8 mL/min/kg
- Vd ([1]; rat): 2.6 L/kg
- clearance ([1]; rat): 122 mL/min/kg
- MRT [2]: 1 h
- Vd [2]: 1.9 L/kg
- clearance [2]: 31 mL/min/kg
- half-life [2]: 1.7 h
- fraction unbound [2]: 0.72

Structure (SMILES): CC[C@@]1(O)C(=O)OCc2c1cc1n(c2=O)Cc2cc3c(CN(C)C)c(O)ccc3nc2-1
- fraction unbound ([1]; monkey): 0.8
- fraction unbound ([1]; rat): 0.747
- fraction unbound [2]: 0.65

Structure (SMILES): COc1nc(N)nc2c1ncn2[C@@H]1O[C@H](CO)[C@@H](O)[C@@H]1O
- Vd ([1]; monkey): 1.3 L/kg
- clearance ([1]; monkey): 42 mL/min/kg
- MRT [2]: 1 h
- Vd [2]: 4.9 L/kg
- clearance [2]: 81 mL/min/kg
- half-life [2]: 0.5 h

Structure (SMILES): CON=C(C(=O)NC1C(=O)N2C(C(=O)O)=C(COC(N)=O)CS[C@H]12)c1ccco1 (stereo partly specified)
- Vd ([1]; dog): 1.5 L/kg
- clearance ([1]; dog): 5 mL/min/kg
- MRT [2]: 1.1 h
- Vd [2]: 0.15 L/kg
- clearance [2]: 2.2 mL/min/kg
- half-life [2]: 1.1 h

Structure (SMILES): CCOC(=O)c1ncn2c1CN(C)C(=O)c1cc(F)ccc1-2
- Vd ([1]; dog): 1 L/kg
- clearance ([1]; dog): 16 mL/min/kg
- fraction unbound ([1]; dog): 0.685
- Vd ([1]; rat): 1.3 L/kg
- clearance ([1]; rat): 147 mL/min/kg
- MRT [2]: 1 h
- clearance [2]: 16 mL/min/kg
- half-life [2]: 0.78 h

Structure (SMILES): C=CC1=C(C(=O)O)N2C(=O)C(=NC(=O)C(NOCC(=O)O)c3csc(N)n3)[C@H]2SC1 (stereo partly specified)
- Vd ([1]; dog): 0.24 L/kg
- clearance ([1]; dog): 0.4 mL/min/kg
- fraction unbound ([1]; dog): 0.07
- Vd ([1]; rat): 0.4 L/kg
- clearance ([1]; rat): 6 mL/min/kg
- fraction unbound ([1]; rat): 0.4
- Vd [2]: 0.24 L/kg
- clearance [2]: 1 mL/min/kg
- half-life [2]: 3.2 h

Structure (SMILES): COc1ccc(Cc2nccc3cc(OC)c(OC)cc23)cc1OC
- Vd ([1]; dog): 3.01 L/kg
- clearance ([1]; dog): 21.8 mL/min/kg
- fraction unbound ([1]; dog): 0.1
- fraction unbound ([1]; rat): 0.09
- MRT [2]: 1.4 h
- Vd [2]: 1 L/kg
- clearance [2]: 11 mL/min/kg
- half-life [2]: 1.8 h

Structure (SMILES): Cc1cc(=O)c(C(=O)NC(C(=O)NC2C(=O)N3C(C(=O)O)=C(CSc4nnnn4C)CS[C@H]23)c2ccc(O)cc2)c[nH]1 (stereo partly specified)
- Vd ([1]; dog): 0.49 L/kg
- clearance ([1]; dog): 5.7 mL/min/kg
- fraction unbound ([1]; dog): 0.7
- Vd ([1]; monkey): 0.1 L/kg
- clearance ([1]; monkey): 0.5 mL/min/kg
- fraction unbound ([1]; monkey): 0.07
- Vd ([1]; rat): 0.26 L/kg
- clearance ([1]; rat): 9.5 mL/min/kg
- fraction unbound ([1]; rat): 0.54
- MRT [2]: 5.2 h
- Vd [2]: 0.15 L/kg
- clearance [2]: 0.48 mL/min/kg
- half-life [2]: 5.4 h
- fraction unbound [2]: 0.03

Structure (SMILES): CN1CCc2cccc3c2[C@H]1Cc1ccc(O)c(O)c1-3
- fraction unbound ([1]; rat): 0.1
- MRT [2]: 0.67 h
- Vd [2]: 1.6 L/kg
- clearance [2]: 40 mL/min/kg
- fraction unbound [2]: 0.05

Structure (SMILES): NC1(C(=O)O)CC1
- Vd ([1]; dog): 0.7 L/kg
- clearance ([1]; dog): 0.4 mL/min/kg
- Vd ([1]; monkey): 0.72 L/kg
- clearance ([1]; monkey): 3.1 mL/min/kg
- Vd ([1]; rat): 0.64 L/kg
- clearance ([1]; rat): 3.2 mL/min/kg
- MRT [2]: 7.8 h
- Vd [2]: 0.73 L/kg
- clearance [2]: 1.5 mL/min/kg
- half-life [2]: 5.9 h

Structure (SMILES): CON=C(C(=O)NC1C(=O)N2C(C(=O)O)=CCS[C@H]12)c1csc(N)n1 (stereo partly specified)
- Vd ([1]; dog): 0.27 L/kg
- clearance ([1]; dog): 3.25 mL/min/kg
- fraction unbound ([1]; dog): 0.83
- Vd ([1]; monkey): 0.29 L/kg
- clearance ([1]; monkey): 5.93 mL/min/kg
- fraction unbound ([1]; monkey): 0.662
- Vd ([1]; rat): 0.54 L/kg
- clearance ([1]; rat): 19.3 mL/min/kg
- fraction unbound ([1]; rat): 0.7
- MRT [2]: 1.6 h
- Vd [2]: 0.2 L/kg
- clearance [2]: 2.1 mL/min/kg
- half-life [2]: 1.5 h
- fraction unbound [2]: 0.72

Structure (SMILES): C[C@@H]1CN(C2CCC(C#N)(c3ccc(F)cc3)CC2)CC[C@]1(C(=O)O)c1ccccc1 (stereo partly specified)
- Vd ([1]; rat): 1.36 L/kg
- clearance ([1]; rat): 27 mL/min/kg
- fraction unbound ([1]; rat): 0.46
- MRT [2]: 45.3 h
- Vd [2]: 1.17 L/kg
- clearance [2]: 0.43 mL/min/kg
- half-life [2]: 33 h
- fraction unbound [2]: 0.453

Structure (SMILES): COc1cc2c(c(OC)c1OC)-c1ccc(OC)c(=O)cc1[C@@H](NC(C)=O)CC2
- Vd ([1]; rat): 31.4 L/kg
- clearance ([1]; rat): 34.3 mL/min/kg
- MRT [2]: 49 h
- Vd [2]: 6.1 L/kg
- clearance [2]: 2.1 mL/min/kg
- half-life [2]: 58 h

Structure (SMILES): CCOC(=O)C1[C@@H](OC(=O)c2ccccc2)C[C@@H]2CC[C@H]1N2C (stereo partly specified)
- Vd ([1]; dog): 2.68 L/kg
- clearance ([1]; dog): 42.2 mL/min/kg
- MRT [2]: 2 h
- Vd [2]: 1.6 L/kg
- clearance [2]: 13 mL/min/kg
- half-life [2]: 1.5 h
- fraction unbound [2]: 0.64
